Values of other authors in patent US12349704B2, “High quality cultured meat, compositions and methods for producing same” (ALEPH FARMS LTD., priority 2018, dated 2025).

Assays:
[1] = not given; remark: listed apart in the source
[2] = dietary or formulated lycopene

Compound: NCC(=O)[O-].NCC(=O)[O-].[Fe+2] [Ferrous bisglycinate]
- tolerability of dietary iron supplementation (approximately 15 to 120 mg iron/day, iron-deficient young children, adult males, pregnant and non-pregnant females): well tolerated
- adverse effects in field trials of iron fortification of foods (between 2 and 23 mg/day of supplemental dietary iron): without any reports of adverse effects

Compound: CC1=C(/C=C/C(C)=C/C=C/C(C)=C/C=C/C=C(C)/C=C/C=C(C)/C=C/C2=C(C)CCCC2(C)C)C(C)(C)CCC1 [beta-carotene]
- daily intake that may lead to hypercarotenemia (yellowish coloration of the skin, harmless and reversible) [1]: > 30 mg

Compound: CC(C)=CCC/C(C)=C/C=C/C(C)=C/C=C/C(C)=C/C=C/C=C(C)/C=C/C=C(C)/C=C/C=C(\C)CCC=C(C)C [lycopene]
- intake levels at which no adverse effects were observed [2]: up to 3 g/(kg*d)
